From ChEMBL document CHEMBL4706763, “Targeting IRAK1 for Degradation with PROTACs” (ACS Med Chem Lett, 2021)

Assays:
[1] = molecular target: T1, von Hippel-Lindau disease tumor suppressor/Interleukin-1 receptor-associated kinase 1 (Homo sapiens, UniProt P51617+P40337); assay: Protac activity at VHL/IRAK1 in HEK293T cells assessed as induction of IRAK1 degradation at 10 uM measured after 24 hrs by Western blot analysis relative to control; assay type: cell-based
Target sequence in this assay (P40337 whole entry, looked up): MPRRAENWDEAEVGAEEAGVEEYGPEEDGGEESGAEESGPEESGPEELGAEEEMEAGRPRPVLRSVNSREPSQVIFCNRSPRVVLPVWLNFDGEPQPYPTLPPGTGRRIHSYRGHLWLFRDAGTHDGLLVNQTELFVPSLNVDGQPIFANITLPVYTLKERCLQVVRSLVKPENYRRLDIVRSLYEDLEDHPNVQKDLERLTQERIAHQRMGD
Target sequence in this assay (P51617 whole entry, looked up): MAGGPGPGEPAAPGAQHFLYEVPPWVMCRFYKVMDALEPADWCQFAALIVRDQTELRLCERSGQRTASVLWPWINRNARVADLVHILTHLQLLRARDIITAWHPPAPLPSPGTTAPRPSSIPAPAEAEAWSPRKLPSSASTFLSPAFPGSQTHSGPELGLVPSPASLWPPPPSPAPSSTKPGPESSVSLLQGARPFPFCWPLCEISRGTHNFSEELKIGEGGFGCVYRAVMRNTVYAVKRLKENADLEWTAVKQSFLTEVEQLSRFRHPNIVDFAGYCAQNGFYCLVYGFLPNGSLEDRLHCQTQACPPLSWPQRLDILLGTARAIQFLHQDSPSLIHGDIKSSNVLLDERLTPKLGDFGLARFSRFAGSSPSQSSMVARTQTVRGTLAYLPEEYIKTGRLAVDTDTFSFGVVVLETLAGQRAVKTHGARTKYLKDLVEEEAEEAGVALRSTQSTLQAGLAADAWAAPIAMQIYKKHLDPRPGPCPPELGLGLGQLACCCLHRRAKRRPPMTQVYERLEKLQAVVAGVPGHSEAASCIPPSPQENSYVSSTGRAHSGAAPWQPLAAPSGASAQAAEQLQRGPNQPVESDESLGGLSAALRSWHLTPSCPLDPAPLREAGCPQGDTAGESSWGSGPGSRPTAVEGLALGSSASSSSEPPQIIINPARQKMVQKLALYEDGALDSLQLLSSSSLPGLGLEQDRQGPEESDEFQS

[2] = molecular target: T1, von Hippel-Lindau disease tumor suppressor/Interleukin-1 receptor-associated kinase 1; assay: Protac activity at VHL/IRAK1 in HEK293T cells assessed as induction of IRAK1 degradation measured after 24 hrs by Western blot analysis; assay type: cell-based
Target sequence in this assay (P51617 whole entry): as the sequence (P51617 whole entry, looked up) above
Target sequence in this assay (P40337 whole entry): as the sequence (P40337 whole entry, looked up) above

SMILES	Emax [1] [%]	DC50 [2] [nM]
COc1cc(N2CCC(OCC(=O)N[C@H](C(=O)N3C[C@H](O)C[C@H]3C(=O)NCc3ccc(-c4scnc4C)cc3F)C(C)(C)C)CC2)ccc1NC(=O)c1cccc(-c2ccn[nH]2)n1	96	13
COc1cc(N2CCN(C(=O)OCC(=O)N[C@H](C(=O)N3C[C@H](O)C[C@H]3C(=O)NCc3ccc(-c4scnc4C)cc3)C(C)(C)C)CC2)ccc1NC(=O)c1cccc(-c2ccn[nH]2)n1	97	16
COc1cc(N2CC[C@@H](OCC(=O)N[C@H](C(=O)N3C[C@H](O)C[C@H]3C(=O)N[C@@H](C)c3ccc(-c4scnc4C)cc3)C(C)(C)C)[C@H](C)C2)ccc1NC(=O)c1cccc(-c2ccn[nH]2)n1	96	21
COc1cc(N2CCN(C(=O)OCC(=O)N[C@H](C(=O)N3C[C@H](O)C[C@H]3C(=O)N[C@@H](C)c3ccc(-c4scnc4C)cc3)C(C)(C)C)CC2)ccc1NC(=O)c1cccc(-c2ccn[nH]2)n1	90	9
COc1cc(N2CCC(OCC(=O)N[C@H](C(=O)N3C[C@H](O)C[C@H]3C(=O)NCc3ccc(-c4scnc4C)cc3)C(C)(C)C)CC2)ccc1NC(=O)c1cccc(-c2ccn[nH]2)n1	95	16
COc1cc(N2CC[C@H](OCC(=O)N[C@H](C(=O)N3C[C@H](O)C[C@H]3C(=O)N[C@@H](C)c3ccc(-c4scnc4C)cc3)C(C)(C)C)[C@@H](C)C2)ccc1NC(=O)c1cccc(-c2ccn[nH]2)n1	95	–

Second part, the compound after the results:

Emax [1] [%]	DC50 [2] [nM]	SMILES
96	3	COc1cc(N2CCC(OCC(=O)N[C@H](C(=O)N3C[C@H](O)C[C@H]3C(=O)N[C@@H](C)c3ccc(-c4scnc4C)cc3)C(C)(C)C)CC2)ccc1NC(=O)c1cccc(-c2ccn[nH]2)n1
94	13	COc1cc(N2CC[C@@H](OCC(=O)N[C@H](C(=O)N3C[C@H](O)C[C@H]3C(=O)N[C@@H](C)c3ccc(-c4scnc4C)cc3)C(C)(C)C)C[C@@H]2C)ccc1NC(=O)c1cccc(-c2ccn[nH]2)n1
